According to patent publication US5854252A, “Dihalotriazolopyrimidine derivatives” (Shell Internationale Research Maatschappij B.V., priority 1993, dated 1998):
In brackets after ≈: the same amount, converted by molar mass.

Key:
Micronectriella nivalis = experiment: MIC by serial dilution, Example 55, Micronectriella nivalis; assay type: cell-based; conditions: microtitre plates, 20° C., 6-8 days
Method: (§1) The MIC (Minimum Inhibition Concentration)-values were determined by serial dilution tests using 48-well microtitre plates. The dilution of the test compounds in the nutrient solution and the distribution to the wells were carried out by a TECAN RSP 5000 robotic sample processor.
(§2) For preparation of the nutrient solution, V8 juice (Trade Mark) was neutralised with calcium carbonate and centrifuged. The supernatant was diluted with distilled water (1:5) to the final concentration.
(§3) The fungi (Alternaria solani, Botrytis cinerea, Pseudocercosporella herpotrichoides, Micronectriella nivalis, Gaeumannomyces graminis) were added into the wells as a droplet of spore suspension. The microtitre plates were then incubated at 20° C. for 6-8 days. The MIC-value, which was defined to be the lowest concentration in the dilution series without mycelial growth, was determined by visual inspection of the plates.

Gaeumannomyces graminis = experiment: MIC by serial dilution, Example 55, Gaeumannomyces graminis; assay type: cell-based; conditions: microtitre plates, 20° C., 6-8 days
Method: as §1, §2, §3

[1] = system: Pseudocercosporella herpotrichoides; experiment: Activity against wheat eyespot in-vitro (PHI), Example 53(j); assay type: cell-based; conditions: 50 ppm, 12 days at 20° C.
Method: This test measures the in vitro activity of compounds against the fungus causing wheat eyespot. The test compound is dissolved or suspended in acetone and is added into 4 ml aliquots of half strength Potato Dextrose Broth dispensed in 25-compartment petri dishes to give a final concentration of 50 ppm compound and 2.5% acetone. Each compartment is inoculated with a 6 mm diameter plug of agar/mycelium taken from a 14 day old culture of P. herpotrichoides. Plates are incubated at 20° C. for 12 days until the assessment of mycelial growth. The extent of disease control in all the above tests is expressed as a rating compared with either an untreated control or a diluent-sprayed-control, according to the criteria: […]

[2] = system: Pseudocercosporella herpotrichoides; experiment: MIC by serial dilution, Example 55, Pseudocercosporella herpotrichoides; assay type: cell-based; conditions: Oculimacula yallundae; microtitre plates, 20° C., 6-8 days
Method: as §1, §2, §3

Plasmopara viticola = experiment: Direct protectant activity against vine downy mildew (PVP), Example 53(c); assay type: in vivo; conditions: protectant foliar spray, 1000 ppm
Method: The test is a direct protectant one using a foliar spray. The lower surface of leaves of whole vine plants (cv Cabernet Sauvignon) are sprayed with the test compound at a dosage of 1000 ppm using an automated sprayline as described under (a), and after a subsequent period of 24 hours under normal glasshouse conditions the lower surfaces of the leaves are inoculated by spraying with an aqueous suspension containing 2.5×10^4 zoosporangia/ml. The inoculated plants are kept for 24 hours in a high humidity cabinet, 5 days under normal glasshouse conditions and then returned for a further 24 hours to high humidity. Assessment is based on the percentage of leaf area covered by sporulation compared with that on control leaves. The extent of disease control in all the above tests is expressed as a rating compared with either an untreated control or a diluent-sprayed-control, according to the criteria: […]

Botrytis cinerea = experiment: MIC by serial dilution, Example 55, Botrytis cinerea; assay type: cell-based; conditions: microtitre plates, 20° C., 6-8 days
Method: as §1, §2, §3

Puccinia arachidis = experiment: Field pot test with Puccinia arachidis on peanuts; assay type: in vivo; conditions: topical, 456 h, 500 μg/ml spray, 1000 l/ha, 19 days after treatment, Abbott formula, read-out: % efficacy Puccinia arachidis
Method: 15 seeds of peanuts were sown in pots filled with a soil substrate. When the plants have developed 4 true leaves the fungicides and the test compounds were applied using a hand sprayer. The test compounds were applied at a concentration of 500 μg/ml in a […] containing 10% acetone and 0.05% Triton X 155 in water. The total amount of […] corresponded to 1000 l/ha. Six replicates per treatment were used. 2 Days after treatment the pots were exposed to peanut plants in the field on which the fungus, Puccinia arachidis, had formed sporulating pustules on the leaves. The assessment was carried out 19 days after treatment by estimating the percentage of infected leaf area. The % efficacy was calculated using the Abbott formula.

Cercospora arachidicola = experiment: Field pot test with Cercospora arachidicola on peanuts; assay type: in vivo; conditions: Mycosphaerella arachidis, topical, 360 h, 500 μg/ml spray, 1000 l/ha, 15 days after treatment, Abbott formula, read-out: % efficacy Cercospora arachidicola
Method: 15 Seeds of peanuts were sown in pots filled with a soil substrate. When the plants have developed 4 true leaves (approx. 12-14 days after seeding) the fungicides and the test compounds were applied using a hand sprayer. The test compounds were applied at a concentration of 500 μg/ml in a […] containing 10% acetone and 0.05% Triton X 155 in water. The total amount of […] corresponded to 1000 l/ha. Six replicates (pots) per treatment were used. 2 days after treatment the pots were exposed to peanut plants in the field on which the fungus, Cercospora arachidicola, had formed sporulating lesions. The assessment was carried out 15 days after treatment by estimating the percentage of infected leaf area. The % efficacy was calculated using the Abbott formula.

Leptosphaeria nodorum = experiment: Activity against wheat leafspot (LN), Example 53(f); assay type: in vivo; conditions: therapeutic foliar spray, 1000 ppm
Method: The test is a direct therapeutic one, using a foliar spray. Leaves of wheat plants (cv Norman), at the single leaf stage, are inoculated by spraying with an aqueous suspension containing 1×10^6 spores/ml. The inoculated plants are kept for 24 hours in a high humidity compartment prior to treatment. The plants are sprayed with a solution of the test compound at a dosage of 1000 ppm using an automated sprayline as described under (a). After drying, the plants are kept for 6-8 days at 22° C. and moderate humidity, followed by assessment. Assessment is based on the density of lesions per leaf compared with that on leaves of control plants. The extent of disease control in all the above tests is expressed as a rating compared with either an untreated control or a diluent-sprayed-control, according to the criteria: […]

SMILES | MIC (Micronectriella nivalis) [µg/mL] | MIC (Gaeumannomyces graminis) [µg/mL] | MIC [2] [µg/mL] | Fungicidal Activity PHI (disease control rating) [1] | pest or weed control at 500 µg/mL (Puccinia arachidis) [%] | pest or weed control at 500 µg/mL (Cercospora arachidicola) [%] | also measured
COc1cccc(-c2c(Cl)nc3ncnn3c2Cl)c1 [Example 4] | – | – | – | 2 (greater than 80% disease control) | – | – | Fungicidal Activity PVP (disease control rating) (Plasmopara viticola): 1 (about 50-80% disease control)
COc1ccccc1-c1c(Cl)nc2ncnn2c1Cl [Example 5] | – | – | – | 2 (greater than 80% disease control) | – | – | Fungicidal Activity PVP (disease control rating) (Plasmopara viticola): 2 (greater than 80% disease control)
O=S(=O)(Cl)c1ccccc1-c1c(Cl)nc2ncnn2c1Cl [Example 6] | – | – | – | – | – | – | MIC (Botrytis cinerea): > 100 µg/mL
FC(F)(F)c1cccc(-c2c(Cl)nc3ncnn3c2Cl)c1 [Example 7] | – | – | – | 2 (greater than 80% disease control) | 25 | 58 | –
FC(F)(F)Oc1ccc(-c2c(Cl)nc3ncnn3c2Cl)cc1 [Example 9] | 0.78 (≈ 2.23 µM) | 0.1 (≈ 0.286 µM) | 12.5 (≈ 35.8 µM) | 2 (greater than 80% disease control) | 25 | 50 | –
Clc1nc2ncnn2c(Cl)c1-c1ccc2ccccc2c1 [Example 10] | – | – | – | 2 (greater than 80% disease control) | – | – | –
Clc1nc2ncnn2c(Cl)c1-c1ccc(Oc2ccccc2)cc1 [Example 12] | – | – | – | – | 33 | 67 | –
Clc1nc2ncnn2c(Cl)c1-c1ccc(-c2ccccc2)cc1 [Example 13] | 6.25 (≈ 18.3 µM) | 0.39 (≈ 1.14 µM) | > 100 | 2 (greater than 80% disease control) | – | – | –
Clc1nc2ncnn2c(Cl)c1-c1ccc(OCc2ccccc2)cc1 [Example 15] | – | – | – | – | – | – | Fungicidal Activity LN (disease control rating) (Leptosphaeria nodorum): 1 (about 50-80% disease control)
Fc1ccccc1-c1c(Cl)nc2ncnn2c1Cl [Example 16] | – | – | – | 2 (greater than 80% disease control) | 42 | 50 | –
Clc1nc2ncnn2c(Cl)c1-c1ccccc1Br [Example 18] | – | – | – | 2 (greater than 80% disease control) | – | – | –

More lines, main results first:

MIC (Micronectriella nivalis) [µg/mL] | MIC (Gaeumannomyces graminis) [µg/mL] | MIC [2] [µg/mL] | SMILES | Fungicidal Activity PHI (disease control rating) [1] | pest or weed control at 500 µg/mL (Puccinia arachidis) [%] | pest or weed control at 500 µg/mL (Cercospora arachidicola) [%] | also measured
1.56 (≈ 5.21 µM) | 3.13 (≈ 10.4 µM) | 25 (≈ 83.5 µM) | Clc1ccccc1-c1c(Cl)nc2ncnn2c1Cl [Example 1, 5,7-dichloro-6-(2-chlorophenyl)-1,2,4-triazolo-[1,5a]pyrimidine] | 2 (greater than 80% disease control) | – | – | –
0.78 (≈ 2.52 µM) | 0.2 (≈ 0.647 µM) | 6.25 (≈ 20.2 µM) | CCOc1ccc(-c2c(Cl)nc3ncnn3c2Cl)cc1 [Example 3] | – | – | – | –
0.39 (≈ 1.38 µM) | 0.2 (≈ 0.706 µM) | 3.13 (≈ 11.1 µM) | Fc1ccc(-c2c(Cl)nc3ncnn3c2Cl)cc1 [Example 11] | 2 (greater than 80% disease control) | 25 | 33 | –
6.25 (≈ 19.2 µM) | 0.78 (≈ 2.4 µM) | 25 (≈ 76.9 µM) | COc1ccc(-c2c(Cl)nc3ncnn3c2Cl)cc1OC [Example 14] | 2 (greater than 80% disease control) | – | – | –
12.5 (≈ 44.2 µM) | 0.78 (≈ 2.76 µM) | 25 (≈ 88.3 µM) | Fc1cccc(-c2c(Cl)nc3ncnn3c2Cl)c1 [Example 17] | 2 (greater than 80% disease control) | – | – | –
